Test results: ChEMBL document CHEMBL1201862, “PubChem BioAssay data set” (2004)
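Five concentrations, 48 hours, 96-well plates. The concentration for 50% growth inhibition is given as GI50.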 Activity calls are given as the source filed them. No stated cut-off is given here; in the data, active = GI50 up to about 1.1 µM and inactive = higher.

How the values were obtained:
Test in all cases: NCI anticancer screen, dose series, 48 h
[1] = system: A549
[2] = system: DU-145
[3] = system: HCC 2998
[4] = system: HOP-62
[5] = system: IGROV-1
[6] = system: LOX IMVI
[7] = system: M14
[8] = system: MDA-MB-231
[9] = system: MDA-MB-435
[10] = system: Malme-3M
[11] = system: NCI-H226
[12] = system: NCI-H522
[13] = system: OVCAR-8
[14] = system: SK-OV-3
[15] = system: SNB-19
[16] = system: SW-620
[17] = system: U-251
[18] = system: UACC-257
[19] = system: UACC-62
[20] = system: BT-549

## CCOC(=O)OC1(c2ccccc2)CCN(C)CC1
[1]
  GI50: > 100 µM (inactive)
[2]
  GI50: > 100 µM (inactive)
[3]
  GI50: > 100 µM (inactive)
[4]
  GI50: > 100 µM (inactive)
[5]
  GI50: > 100 µM (inactive)
[6]
  GI50: > 100 µM (inactive)
[7]
  GI50: > 100 µM (inactive)
[8]
  GI50: > 100 µM (inactive)
[9]
  GI50: > 100 µM (inactive)
[10]
  GI50: > 100 µM (inactive)
[11]
  GI50: > 100 µM (inactive)
[12]
  GI50: > 100 µM (inactive)
[13]
  GI50: > 100 µM (inactive)
[14]
  GI50: > 100 µM (inactive)
[15]
  GI50: > 100 µM (inactive)
[16]
  GI50: > 100 µM (inactive)
[17]
  GI50: > 100 µM (inactive)
[18]
  GI50: > 100 µM (inactive)
[19]
  GI50: > 100 µM (inactive)

## Cc1ccc(S(=O)(=O)n2c3c(c4ccccc42)CCN2CCC(Br)C[C@@H]32)cc1 (some centres undefined)
[1]
  GI50: 16.7 µM (inactive)
[2]
  GI50: 15.1 µM (inactive)
[3]
  GI50: 15 µM (inactive)
[4]
  GI50: 15 µM (inactive)
[5]
  GI50: 10.1 µM (inactive)
[6]
  GI50: 13.9 µM (inactive)
[7]
  GI50: 12.9 µM (inactive)
[8]
  GI50: 16.5 µM (inactive)
[9]
  GI50: 3.79 µM (inactive)
[10]
  GI50: 13.2 µM (inactive)
[11]
  GI50: 13.4 µM (inactive)
[12]
  GI50: 6.34 µM (inactive)
[13]
  GI50: 12.6 µM (inactive)
[14]
  GI50: 15.7 µM (inactive)
[15]
  GI50: 15.4 µM (inactive)
[16]
  GI50: 12.8 µM (inactive)
[17]
  GI50: 12.4 µM (inactive)
[18]
  GI50: 7.23 µM (inactive)
[19]
  GI50: 11.9 µM (inactive)

## CN1CCN(CCCBr)CC1
[1]
  GI50: > 100 µM (inactive)
[20]
  GI50: > 100 µM (inactive)
[2]
  GI50: > 100 µM (inactive)
[4]
  GI50: > 100 µM (inactive)
[5]
  GI50: > 100 µM (inactive)
[6]
  GI50: > 100 µM (inactive)
[7]
  GI50: > 100 µM (inactive)
[8]
  GI50: > 100 µM (inactive)
[9]
  GI50: > 100 µM (inactive)
[10]
  GI50: > 100 µM (inactive)
[11]
  GI50: > 100 µM (inactive)
[12]
  GI50: > 100 µM (inactive)
[13]
  GI50: > 100 µM (inactive)
[14]
  GI50: > 100 µM (inactive)
[15]
  GI50: > 100 µM (inactive)
[16]
  GI50: > 100 µM (inactive)
[17]
  GI50: > 100 µM (inactive)
[18]
  GI50: > 100 µM (inactive)
[19]
  GI50: > 100 µM (inactive)

## Cc1ccc(S(=O)(=O)n2cc(/C=C/C#N)c(-c3cn(S(=O)(=O)c4ccc(C)cc4)cc3-c3cn(S(=O)(=O)c4ccc(C)cc4)cc3/C=C/C#N)c2)cc1
[20]
  GI50: > 100 µM (inactive)
[2]
  GI50: > 100 µM (inactive)
[4]
  GI50: > 100 µM (inactive)
[5]
  GI50: > 100 µM (inactive)
[6]
  GI50: 93.8 µM (inactive)
[7]
  GI50: 47 µM (inactive)
[8]
  GI50: 18.5 µM (inactive)
[9]
  GI50: > 100 µM (inactive)
[10]
  GI50: > 100 µM (inactive)
[11]
  GI50: > 100 µM (inactive)
[12]
  GI50: > 100 µM (inactive)
[13]
  GI50: > 100 µM (inactive)
[14]
  GI50: > 100 µM (inactive)
[15]
  GI50: > 100 µM (inactive)
[18]
  GI50: > 100 µM (inactive)
[19]
  GI50: > 100 µM (inactive)

## Nc1ccn(C2OC(COP(=O)(O)OCC3OC(n4cc(F)c(=O)[nH]c4=O)CC3O)C(O)C2O)c(=O)n1 (centres undefined)
[1]
  GI50: 0.0244 µM (active)
[20]
  GI50: > 37.6 µM (inactive)
[2]
  GI50: 0.0828 µM (active)
[3]
  GI50: 87.9 µM (inactive)
[5]
  GI50: > 34 µM (inactive)
[6]
  GI50: 0.0353 µM (active)
[7]
  GI50: 0.183 µM (active)
[9]
  GI50: 1.58 µM (inactive)
[10]
  GI50: 3.07 µM (inactive)
[11]
  GI50: > 22.9 µM (inactive)
[12]
  GI50: 14.6 µM (inactive)
[13]
  GI50: 1.37 µM (inactive)
[14]
  GI50: 26.7 µM (inactive)
[15]
  GI50: 0.585 µM (active)
[16]
  GI50: > 100 µM (inactive)
[17]
  GI50: 1.77 µM (inactive)
[18]
  GI50: > 21.5 µM (inactive)
[19]
  GI50: 0.0925 µM (active)

## CN1CCCN(C)C1c1cc([N+](=O)[O-])ccc1O
[1]
  GI50: > 100 µM (inactive)
[20]
  GI50: 39.5 µM (inactive)
[2]
  GI50: 36.9 µM (inactive)
[4]
  GI50: 40.7 µM (inactive)
[5]
  GI50: 26.3 µM (inactive)
[6]
  GI50: 19.4 µM (inactive)
[7]
  GI50: 19.1 µM (inactive)
[8]
  GI50: 24.9 µM (inactive)
[9]
  GI50: 31.2 µM (inactive)
[10]
  GI50: 23.5 µM (inactive)
[11]
  GI50: 34.1 µM (inactive)
[12]
  GI50: 33.9 µM (inactive)
[13]
  GI50: 35.6 µM (inactive)
[14]
  GI50: 34.1 µM (inactive)
[15]
  GI50: 30.8 µM (inactive)
[16]
  GI50: 70.6 µM (inactive)
[17]
  GI50: 26.5 µM (inactive)
[18]
  GI50: 19 µM (inactive)
[19]
  GI50: 16.6 µM (inactive)

## CCOC(=O)c1cccn1S(=O)(=O)c1cc(Cl)ccc1NC(=O)CC
[1]
  GI50: 54.1 µM (inactive)
[20]
  GI50: 52.6 µM (inactive)
[2]
  GI50: > 100 µM (inactive)
[4]
  GI50: > 100 µM (inactive)
[5]
  GI50: > 100 µM (inactive)
[6]
  GI50: 70.5 µM (inactive)
[8]
  GI50: 39.2 µM (inactive)
[9]
  GI50: 33.3 µM (inactive)
[12]
  GI50: 18.5 µM (inactive)
[14]
  GI50: 43.3 µM (inactive)
[15]
  GI50: > 100 µM (inactive)
[16]
  GI50: > 100 µM (inactive)
[17]
  GI50: > 100 µM (inactive)
[18]
  GI50: > 100 µM (inactive)
[19]
  GI50: 58.9 µM (inactive)

## C=CCN1C(=O)C=C(c2ccccc2)n2ncc3cccc1c32
[1]
  GI50: > 100 µM (inactive)
[20]
  GI50: > 100 µM (inactive)
[2]
  GI50: > 100 µM (inactive)
[4]
  GI50: 80.4 µM (inactive)
[5]
  GI50: > 100 µM (inactive)
[6]
  GI50: > 100 µM (inactive)
[7]
  GI50: > 100 µM (inactive)
[8]
  GI50: > 100 µM (inactive)
[9]
  GI50: 1.46 µM (inactive)
[10]
  GI50: > 100 µM (inactive)
[11]
  GI50: > 100 µM (inactive)
[12]
  GI50: > 100 µM (inactive)
[13]
  GI50: > 100 µM (inactive)
[14]
  GI50: > 100 µM (inactive)
[15]
  GI50: > 100 µM (inactive)
[16]
  GI50: > 100 µM (inactive)
[17]
  GI50: > 100 µM (inactive)
[18]
  GI50: > 100 µM (inactive)
[19]
  GI50: > 100 µM (inactive)
